Data: PubChem BioAssay (NCI)
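Method: 48-hour compound exposure of cells in 96-well plates, five concentrations, linear interpolation of endpoints. Definition used: TGI = concentration required for complete inhibition of growth.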

Key:
Assay in all cases: growth of human tumour cells (NCI), 48 h
EKVX NSCLC = tested on: EKVX NSCLC
HT29 colon = tested on: HT29 colon
IGROV1 ovarian = tested on: IGROV1 ovarian
MDA-MB-231 breast = tested on: MDA-MB-231 breast
SF-268 CNS = tested on: SF-268 CNS
HCT-116 colon = tested on: HCT-116 colon
786-0 renal = tested on: 786-0 renal
U251 CNS = tested on: U251 CNS
RXF 393 renal = tested on: RXF 393 renal
TK-10 renal = tested on: TK-10 renal
CAKI-1 renal = tested on: CAKI-1 renal
SK-MEL-5 melanoma = tested on: SK-MEL-5 melanoma
ACHN renal = tested on: ACHN renal
NCI/ADR-RES ovarian = tested on: NCI/ADR-RES ovarian
KM12 colon = tested on: KM12 colon
T-47D breast = tested on: T-47D breast
SNB-19 CNS = tested on: SNB-19 CNS
HOP-92 NSCLC = tested on: HOP-92 NSCLC
CCRF-CEM leukemia = tested on: CCRF-CEM leukemia
HOP-62 NSCLC = tested on: HOP-62 NSCLC
LOX IMVI melanoma = tested on: LOX IMVI melanoma
NCI-H23 lung = tested on: NCI-H23 lung
HCC-2998 colon = tested on: HCC-2998 colon
OVCAR-8 ovarian = tested on: OVCAR-8 ovarian
K-562 leukemia = tested on: K-562 leukemia
HS 578T breast = tested on: HS 578T breast
COLO 205 colon = tested on: COLO 205 colon
SK-MEL-2 melanoma = tested on: SK-MEL-2 melanoma
MDA-N = tested on: MDA-N
NCI-H522 lung = tested on: NCI-H522 lung
MCF7 breast = tested on: MCF7 breast
PC-3 prostate = tested on: PC-3 prostate
M14 melanoma = tested on: M14 melanoma
OVCAR-3 ovarian = tested on: OVCAR-3 ovarian
A549 NSCLC = tested on: A549 NSCLC
HL-60(TB) leukemia = tested on: HL-60(TB) leukemia
UACC-257 melanoma = tested on: UACC-257 melanoma
SF-295 CNS = tested on: SF-295 CNS
MDA-MB-435 = tested on: MDA-MB-435
MOLT-4 leukemia = tested on: MOLT-4 leukemia
BT-549 breast = tested on: BT-549 breast
OVCAR-5 ovarian = tested on: OVCAR-5 ovarian
UO-31 renal = tested on: UO-31 renal
SW-620 colon = tested on: SW-620 colon
DU-145 prostate = tested on: DU-145 prostate
SF-539 CNS = tested on: SF-539 CNS
SN12C renal = tested on: SN12C renal
OVCAR-4 ovarian = tested on: OVCAR-4 ovarian
A498 renal = tested on: A498 renal
SR leukemia = tested on: SR leukemia
SK-MEL-28 melanoma = tested on: SK-MEL-28 melanoma
NCI-H460 lung = tested on: NCI-H460 lung
UACC-62 melanoma = tested on: UACC-62 melanoma
HCT-15 colon = tested on: HCT-15 colon
NCI-H226 lung = tested on: NCI-H226 lung
SNB-75 CNS = tested on: SNB-75 CNS
SK-OV-3 ovarian = tested on: SK-OV-3 ovarian
MALME-3M melanoma = tested on: MALME-3M melanoma
RPMI-8226 leukemia = tested on: RPMI-8226 leukemia

Compound: C[C@@]1(O)C2C3CC4C5C3C1[C@](O)(C42)[C@H]5Br (some centres not stated)
- TGI (EKVX NSCLC): > 100 µM
- TGI (HT29 colon): > 100 µM
- TGI (IGROV1 ovarian): > 100 µM
- TGI (MDA-MB-231 breast): > 100 µM
- TGI (SF-268 CNS): > 100 µM
- TGI (HCT-116 colon): > 100 µM
- TGI (786-0 renal): > 100 µM
- TGI (U251 CNS): > 100 µM
- TGI (RXF 393 renal): > 100 µM
- TGI (TK-10 renal): > 100 µM
- TGI (CAKI-1 renal): > 100 µM
- TGI (SK-MEL-5 melanoma): > 100 µM
- TGI (ACHN renal): > 100 µM
- TGI (NCI/ADR-RES ovarian): > 100 µM
- TGI (KM12 colon): > 100 µM
- TGI (T-47D breast): > 100 µM
- TGI (SNB-19 CNS): > 100 µM
- TGI (HOP-92 NSCLC): > 100 µM
- TGI (CCRF-CEM leukemia): > 100 µM
- TGI (HOP-62 NSCLC): > 100 µM
- TGI (LOX IMVI melanoma): > 100 µM
- TGI (NCI-H23 lung): > 100 µM
- TGI (HCC-2998 colon): > 100 µM
- TGI (OVCAR-8 ovarian): > 100 µM
- TGI (K-562 leukemia): > 100 µM
- TGI (HS 578T breast): > 100 µM
- TGI (COLO 205 colon): > 100 µM
- TGI (SK-MEL-2 melanoma): > 100 µM
- TGI (MDA-N): > 100 µM
- TGI (NCI-H522 lung): > 100 µM
- TGI (MCF7 breast): > 100 µM
- TGI (PC-3 prostate): > 100 µM
- TGI (M14 melanoma): > 100 µM
- TGI (OVCAR-3 ovarian): > 100 µM
- TGI (A549 NSCLC): > 100 µM
- TGI (HL-60(TB) leukemia): > 100 µM
- TGI (UACC-257 melanoma): > 100 µM
- TGI (SF-295 CNS): > 100 µM
- TGI (MDA-MB-435): > 100 µM
- TGI (MOLT-4 leukemia): > 100 µM
- TGI (BT-549 breast): > 100 µM
- TGI (OVCAR-5 ovarian): > 100 µM
- TGI (UO-31 renal): > 100 µM
- TGI (SW-620 colon): > 100 µM
- TGI (DU-145 prostate): > 100 µM
- TGI (SF-539 CNS): > 100 µM
- TGI (SN12C renal): > 100 µM
- TGI (OVCAR-4 ovarian): > 100 µM
- TGI (A498 renal): > 100 µM
- TGI (SR leukemia): > 100 µM
- TGI (SK-MEL-28 melanoma): > 100 µM
- TGI (NCI-H460 lung): > 100 µM
- TGI (UACC-62 melanoma): > 100 µM
- TGI (HCT-15 colon): > 100 µM

Compound: N#Cc1nc(/C=C/c2nc(C#N)c(N)o2)oc1N
- TGI (EKVX NSCLC): > 10 µM
- TGI (HT29 colon): > 10 µM
- TGI (IGROV1 ovarian): > 10 µM
- TGI (MDA-MB-231 breast): > 10 µM
- TGI (SF-268 CNS): > 10 µM
- TGI (HCT-116 colon): > 10 µM
- TGI (786-0 renal): > 10 µM
- TGI (RXF 393 renal): > 10 µM
- TGI (TK-10 renal): > 10 µM
- TGI (CAKI-1 renal): > 10 µM
- TGI (SK-MEL-5 melanoma): > 10 µM
- TGI (ACHN renal): > 10 µM
- TGI (NCI/ADR-RES ovarian): > 10 µM
- TGI (KM12 colon): > 10 µM
- TGI (T-47D breast): > 10 µM
- TGI (SNB-19 CNS): > 10 µM
- TGI (HOP-92 NSCLC): > 10 µM
- TGI (CCRF-CEM leukemia): > 10 µM
- TGI (NCI-H226 lung): > 10 µM
- TGI (HOP-62 NSCLC): > 10 µM
- TGI (LOX IMVI melanoma): > 10 µM
- TGI (NCI-H23 lung): > 10 µM
- TGI (HCC-2998 colon): > 10 µM
- TGI (OVCAR-8 ovarian): > 10 µM
- TGI (K-562 leukemia): > 10 µM
- TGI (HS 578T breast): > 10 µM
- TGI (COLO 205 colon): > 10 µM
- TGI (SNB-75 CNS): > 10 µM
- TGI (MDA-N): > 10 µM
- TGI (NCI-H522 lung): > 10 µM
- TGI (MCF7 breast): > 10 µM
- TGI (PC-3 prostate): > 10 µM
- TGI (M14 melanoma): > 10 µM
- TGI (A549 NSCLC): > 10 µM
- TGI (SK-OV-3 ovarian): > 10 µM
- TGI (HL-60(TB) leukemia): > 10 µM
- TGI (UACC-257 melanoma): > 10 µM
- TGI (SF-295 CNS): > 10 µM
- TGI (MALME-3M melanoma): > 10 µM
- TGI (MDA-MB-435): > 10 µM
- TGI (BT-549 breast): > 10 µM
- TGI (UO-31 renal): > 10 µM
- TGI (SW-620 colon): > 10 µM
- TGI (DU-145 prostate): > 10 µM
- TGI (SF-539 CNS): > 10 µM
- TGI (SN12C renal): > 10 µM
- TGI (RPMI-8226 leukemia): > 10 µM
- TGI (OVCAR-4 ovarian): > 10 µM
- TGI (SR leukemia): > 10 µM
- TGI (SK-MEL-28 melanoma): > 10 µM
- TGI (NCI-H460 lung): > 10 µM
- TGI (UACC-62 melanoma): > 10 µM
- TGI (HCT-15 colon): > 10 µM
